Where two headings read alike, the source gives them in different places.
Experiments:
[1] = test system: Plasmodium berghei ANKA mCherry; format: in vivo, mice (outbred CD1); conditions: mice
Protocol: In addition to in vitro experiments to test the ability of tranexamic acid to impair the asexual intraerythrocytic development of P. falciparum, experiments were conducted to test, in vivo, the ability of tranexamic acid to cure asynchronized blood stage infections of Plasmodium berghei ANKA mCherry in mice. P. berghei is a species in the genus Plasmodium subgenus Vinckeia and is a protozoan parasite that causes malaria in rodents. Due to its ability to infect rodents and relative ease of genetic engineering, P. berghei is a popular model organism for the study of human malaria, and was thus used in the present disclosure.
Recipient mice (n=5/group; 3 groups) received blood from a donor mouse containing asynchronous asexual blood stages of P. berguei. Parasitemia was monitored and when it reached at least 5% mice were treated intravenously (i.v.) with 20, 10, or 0 mg of tranexamic acid in a phosphate-buffered saline (PBS) carrier. Blood smears from tail snips were prepared every 24 hours, or until the humane endpoint criteria was reached, to monitor parasitemia.
FIG. 4 illustrates in vivo asexual blood stage growth of P. berghei after the injection of the PBS carrier. […]

Plasmodium falciparum = test: in vitro asexual blood stage growth of Plasmodium falciparum; format: cell-based; conditions: for IC50: Plasmodium falciparum, P. falciparum in vitro
Protocol: Presented herein is experiment data representing tranexamic acid as an antimalarial druggable scaffold. The results shown below show the efficacy of tranexamic acid against both Plasmodium falciparum and P. berghei across the parasite lifecycle. The data herein illustrates the ability of tranexamic acid to act as an antimicrobial agent, and more particularly, in some embodiments, as an antimalarial drug. Experiments were conducted to test, in vitro, the ability of tranexamic acid to impair the asexual intraerythrocytic development of P. falciparum. All of the symptoms associated with malaria infection are caused by the asexual blood stages, which makes them a logical therapeutic target.
Up to six different concentrations of tranexamic acid plus a negative control (carrier with no drug) were tested in a highly synchronous culture. A two-fold serial dilution starting at 200 mM was prepared, replenishing the drug daily for four consecutive days (i.e. two complete intraerythrocytic cycles).
FIG. 1 illustrates in vitro asexual blood stage growth at day 1 after 1 dose of tranexamic acid (TXA). Values are the mean of three technical replicates, and error bars represent the standard deviation. FIG. 2 illustrates in vitro asexual blood stage growth at day 3 after 3 doses of tranexamic acid (TXA). Values are the mean of three technical replicates, and error bars represent the standard deviation. FIG. 3 illustrates in vitro IC50 of tranexamic acid after three daily doses. Values are the mean of three technical replicates, relative to the minimal effect (i. e. the parasitemia from the samples with no drug). Error bars represent the standard deviation. Morphological defective parasites could be observed at day 4 in the two lowest tested concentrations (i.e. 12.5 and 6.25 mM). Healthy segmented schizonts were selected from the sample mock-treated in the absence of tranexamic acid (0 mM).

What does the source list for NC[C@H]1CC[C@H](C(=O)O)CC1 [tranexamic acid]?
equivalent in vitro concentration based on estimated volemia ([1]; 10 mg injection i.v.): approximately 37 mM; equivalent in vitro concentration based on estimated volemia ([1]; 20 mg injection i.v.): ~75 mM; clearance of infection (Plasmodium falciparum; 100 mM, after 48 hours, two doses): cleared the infection; clearance of infection (Plasmodium falciparum; 200 mM, after 24 hours, single dose, FIG. 1): completely cleared the infection; parasite morphology (Plasmodium falciparum; 12.5 and 6.25 mM, day 4, some parasites arrested at schizont-like morphology): morphological defects could be observed; IC50 (Plasmodium falciparum; 72 h, after 3 daily doses, FIG. 3, read-out: IC50 at day 3): 11.4 mM; IC50 (Plasmodium falciparum; drug replenished on a daily basis, read-out: in vitro IC50): 11.4 mM; growth delay (Plasmodium falciparum; some of the tested concentrations, rings and early trophozoites on day 3 (72 hours after first dose), FIG. 2): a growth delay was observed

Reference: US20230080241A1 (priority 2020, published 2023)
